Measured values from patent US20050101621A1, “Method for rapid detoxification of addiction” (priority 2003, published 2005).

Assay: general anesthesia assisted opiate detoxification with high-rate opiod antagonist infusion
Type: in vivo, patient
Excerpt: Treatment begins by providing the patient with Valium, Xanax and Trazedone, which are taken orally. The patient's vitals are then monitored using such equipment as an electrocardiogram, pulse oxymeter, blood pressure monitor, ETCO2 monitor, oxygen sensor, and tidol volume monitor. An intravenous (IV) line is then set-up and general anesthesia is induced, preferably using Valium, Propofol and Mivacron. These anesthetizing agents are suited to facilitate endotracheal (ET) intubation.
Once the anesthesia takes effect, an endotracheal tube is appropriately placed through the patient's oral cavity and the patient retrieves to spontaneous respirations over the next few minutes. A Precedex infusion is then started, preferably at […], to achieve cardiovascular stability. Next antiemetics and antiperistaltic agents are then administered. In accordance with the preferred method the antiemetics and antiperistaltic agents comprise dexamethazone somatostatin and robinul; other similar agents can be employed. An antihistamine agent, e.g., Benedryl, is then given.
Next, a Naloxone (or its generic counterpart Narcane) infusion is started at rate of 0.6 mg/kg/hr for one hour, i.e., 0.6 mg/hr per unit of the patient's metric weight. In accordance with the present invention, Naloxone is administered at rate greater than 1.5 mg/hr. […]

With `C=CCN1CC[C@]23c4c5ccc(O)c4O[C@H]2C(=O)CC[C@@]3(O)[C@H]1C5` [Naloxone] the “medical risk to the patient of high-rate Naloxone administration” value (infusion 0.6 mg/kg/hr for one hour (30 mg/hr for 50 kg, approximately 50 mg/hr for 75 kg), patient anesthetized) was “does not expose a patient to a severe medical risk” and the “risk to the patient of Naloxone administration” value (rate of 1.4 mg/kg/hr) was “without exposing the patient to unnecessary risks”.
